Laboratory results reported in US20100260680A1, “NOVEL BONE MASS INCREASING AGENT” (ORIENTAL YEAST CO., LTD., priority 2007, published 2010).
Entries after “also recorded” stand apart in the source; their conditions may differ. Bridges are numbered along the chain shown (N, C = ends). Where no end group is shown, it is not given here.

Key:
[1] = test system: mouse osteoblasts; assay: ALP activity determination in mouse osteoblasts; format: cell-based; details: 300 μM; differentiation medium; Day 7
Experimental: Seven days after differentiation, the culture supernatant was removed from each plate and the cells were fixed with an acetone/ethanol solution. The ALP activity was determined using p-nitrophenyl phosphate as a substrate. Specifically, a carbonate buffer (5 mM MgCl2, 50 mM NaHCO3) containing p-nitrophenyl phosphate (Nacalai) (1 mg/mL) was added to each well (100 μL/well), followed by incubation at 37° C. Then, the OD value at 405 nm was determined with the use of a microplate reader (BMG Labtech) for each well.
For experiments, a goat polyclonal mRANKL antibody (R&D, Saint Cruz), monoclonal mRANKL antibodies ((A): clone 88227 (R&D); (B): clone 12A668) (ALEXIS), and synthetic peptide D were used. As negative controls, goat IgG (ZYMED) and a control peptide were used. Synthetic peptide D and the control peptide used were the same as those used in Example 1. […] ALP activity determination was carried out as in Example 1.
Newborn mouse calvarias were immersed in an enzyme solution (0.1% collagenase (Wako)+0.2% Dispase (GODO SHUSEI CO., LTD.)), followed by shaking in a thermostatic bath at 37° C. for 5 minutes. The initial floating cell fraction was removed therefrom and a new enzyme solution (10 mL) was added thereto, followed by another instance of shaking in a thermostatic bath at 37° C. for 10 minutes. The above operations were repeated 4 times. […]

[2] = test system: GSK3β; assay: Western blotting of GSK3β phosphorylation in MC3T3-E1 cells; format: cell-based, mouse; details: 1 and 3 hours after the addition; 200 μM peptide D or 200 ng/ml BMP-2
Experimental: MC3T3-E1 cells mixed with 10% FBS+αMEM (SIGMA) were seeded on a 6-well plate (7.5×10^4 cells/well). […] The medium was removed at the respective time points shown in the relevant figures. PBS was added to the cells, and the cells were collected with a scraper (Falcon). A cell pellet was obtained via centrifugation at 1200 rpm for 5 min at 4° C. RIPA buffer (100 μL) was added to the collected pellet, for dissolution of the cellular membrane. Further, the resultant was centrifuged under conditions of 14500 rpm for 25 min at 4° C. The supernatant was collected as a cell extract. A portion of the cell extract was used for quantification of the protein concentration with the use of a BCA protein assay kit (PIERCE). For SDS-PAGE, a sample buffer in an amount that was ¼ that of the cell extract (Fermentas) was added thereto, followed by heating at 95° C. for 5 min. The prepared sample was applied in an amount of 7.5 or 10 μg to 10% polyacrylamide gel (BioRad), followed by electrophoresis at 170 V for 1 hour. After electrophoresis, the electrophoresed sample was transferred to a PVDF membrane (Millipore) at 80 mA for 40 min. The membrane was shaken in a blocking solution (Nacalai) at room temperature for 1 hour and then a primary antibody was added thereto, followed by shaking at room temperature for 1 hour at 4° C. for 12 hours. […]

[3] = test system: mouse osteoblasts; assay: Proliferative response of mouse osteoblasts (WST-1); format: cell-based; details: 100 μM peptide D (acetate) or 3 μg/mL antibody; with or without 5 ng/mL BMP-2; 72-hour culture
Experimental: Mouse osteoblasts mixed with 10% FBS+αMEM (SIGMA) were seeded on a 96-well plate (2×10^3 cells/well). After cell adhesion had taken place, the medium was removed therefrom. […] After 72-hour culture, WST-1 (Roche) was added thereto in an amount 1/10 that of each medium, followed by incubation at 37° C. for 3 hours. Then, the OD value (450 nm) for each well was determined with a microplate reader (BMG Labtech) (reference wavelength: 595 nm).

peptide D: cyclic peptide of SEQ ID NO: 7, 9 amino acids, two cysteine residues bound via a disulfide bond; binds to RANKL (YCWSQYLCY; disulfide 2-8 (inferred))
ALP activation [1]: caused an increase in the degree of ALP activation | phosphorylation of GSK3β [2]: confirmed to be induced | mouse osteoblast proliferation (WST-1) [3]: promoted mouse osteoblast proliferation; also recorded: weak effects
